“Also recorded” adds a separate entry of the source.
What was measured:
[1] = molecular target: T1, SNA-biotin binding to fetuin (Bos taurus, UniProt P12763); assay: biochemical; details: peptide mg/mL: S2PL 1.2, ACS2P1 1.0, S2(14-2.3) 1.0, S2P2 1.1, S2P3 0.51, S2P4 0.98, S2P6 0.85, S3P1 3.2, S3P2 3.1, S3P3 4.5, S3P4 3.3, S3P5 0.48, S3P9a 1.7, SPYGRC 4.4, S2(WGA) 1.0, WGA (62-73) 1.0; + enhancement, − inhibition
T1 sequence (P12763 19-359): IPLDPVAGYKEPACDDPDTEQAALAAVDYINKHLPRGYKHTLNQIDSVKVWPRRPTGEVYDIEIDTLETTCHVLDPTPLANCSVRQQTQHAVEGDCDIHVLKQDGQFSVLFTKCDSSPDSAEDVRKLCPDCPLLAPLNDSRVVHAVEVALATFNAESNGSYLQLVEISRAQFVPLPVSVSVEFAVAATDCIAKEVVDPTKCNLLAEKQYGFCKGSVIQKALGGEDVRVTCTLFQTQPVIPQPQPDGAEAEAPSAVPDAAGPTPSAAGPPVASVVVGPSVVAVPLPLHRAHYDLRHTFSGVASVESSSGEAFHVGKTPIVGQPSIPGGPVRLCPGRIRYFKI
Procedure: (§1) The solution was removed by aspiration and replaced with 100 μl of 1% BSA in PBS containing 0.05% Tween 20 (PBST). After incubation for 2-4 hours at room temperature, the microtiter wells were washed four times with 300 μl of PBST. Peptides ranging in concentration from 0.5 to 4.5 mg/ml in PBS (40 μl) were added to each well and PT-biotin (10 μl containing 10 ng in PBS) was then added to the microtiter wells. After incubating for 1 hour, the binding reaction was stopped by aspirating the solutions and the plate was washed with PBST (300 μl). Horseradish peroxidase-conjugated avidin (100 μl, 1/3000 dilution in PBST to a concentration of 0.3 μg/ml) was then added to the wells, and the plates were incubated at ambient temperature for 1 hour. After washing the wells as described above, the substrate solution [1 mM ABTS in 5 mM citrate buffer, pH 4.2, containing 0.1% hydrogen peroxide, v/v) was added and the plates were incubated for 30 minutes. Color development was recorded at 405 nm using a Titertek Multiskan MC plate reader. Maximum binding was determined in the absence of peptide, and background binding was measured in wells coated with BSA only. Binding assays for each peptide were done in duplicate. Binding inhibition experiments utilizing SNA-, WGA-, and MAL-biotin were performed as described above using 10 ng of each biotinylated lectin in PBS.

[2] = molecular target: T2, WGA-biotin binding to fetuin (Bos taurus, UniProt P12763); assay: biochemical; details: for Percent Changes in Binding Activity WGA/fetuin: peptide mg/mL: S2PL 1.2, ACS2P1 1.0, S2(14-2.3) 1.0, S2P2 1.1, S2P3 0.51, S2P4 0.98, S2P6 0.85, S3P1 3.2, S3P2 3.1, S3P3 4.5, S3P4 3.3, S3P5 0.48, SPYGRC 4.4, S2(WGA) 1.0, WGA (62-73) 1.0, + enhancement, − inhibition
T2 sequence (P12763 19-359): T1 sequence (P12763 19-359)
Procedure: as §1

[3] = molecular target: T3, PT-biotin binding to asialofetuin (Bos taurus, UniProt P12763); assay: PT-biotin binding to asialofetuin, binding inhibition assay; parameters: species or system Bordetella pertussis; details: peptide mg/mL: S2PL 1.2, ACS2P1 1.0, S2P2 1.1, S2P3 0.51, S2P4 0.98, S2P6 0.85, S3P1 3.2, S3P2 3.1, S3P3 4.5, S3P4 3.3, S3P5 0.48, SPYGRC 4.4; + enhancement, − inhibition
T3 construct: made in house
T3 sequence (P12763 19-359): T1 sequence (P12763 19-359)
Procedure: (§2) Peptides ranging in concentration from 0.5 to 4.5 mg/ml in PBS (40 μl) were added to each well and PT-biotin (10 μl containing 10 ng in PBS) was then added to the microtiter wells. […] Horseradish peroxidase-conjugated avidin (100 μl, 1/3000 dilution in PBST to a concentration of 0.3 μg/ml) was then added to the wells, and the plates were incubated at ambient temperature for 1 hour. […] Color development was recorded at 405 nm using a Titertek Multiskan MC plate reader. […] Binding assays for each peptide were done in duplicate. Binding inhibition experiments utilizing SNA-, WGA-, and MAL-biotin were performed as described above using 10 ng of each biotinylated lectin in PBS.
(§3) Binding assays for each inhibitor concentration were done at least in duplicate, and the average value varied less than 15%.

[4] = molecular target: T4, MAL-biotin binding to fetuin (Bos taurus, UniProt P12763); assay: MAL-biotin binding to fetuin, binding inhibition assay; parameters: species or system Maackia amurensis; details: for Percent Changes in Binding Activity MAL/fetuin: peptide mg/mL: S2PL 1.2, ACS2P1 1.0, S2(14-2.3) 1.0, S2P2 1.1, S2P3 0.51, S2P4 0.98, S2P6 0.85, S3P1 3.2, S3P2 3.1, S3P3 4.5, S3P4 3.3, S3P5 0.48, S3P9a 1.7, SPYGRC 4.4, S2(WGA) 1.0, WGA (62-73) 1.0, + enhancement, − inhibition
T4 construct: purchased Sigma Chemical Company (fetuin); Boehringer Mannheim (MAL-biotin)
T4 sequence (P12763 19-359): T1 sequence (P12763 19-359)
Procedure: as §2, §3

[5] = molecular target: T5, PT-biotin binding to fetuin (Bos taurus, UniProt P12763); assay: PT-biotin binding to fetuin, binding inhibition assay; parameters: species or system Bordetella pertussis; details: for Percent Changes in Binding Activity PT/fetuin: peptide mg/mL: S2PL 1.2, ACS2P1 1.0, S2(14-2.3) 1.0, S2P2 1.1, S2P3 0.51, S2P4 0.98, S2P6 0.85, S3P1 3.2, S3P2 3.1, S3P3 4.5, S3P4 3.3, S3P5 0.48, S3P9a 1.7, SPYGRC 4.4, S2(WGA) 1.0, WGA (62-73) 1.0, + enhancement, − inhibition
T5 construct: purchased Sigma Chemical Company (fetuin); Connaught Center for Biotechnology Research (PT)
T5 sequence (P12763 19-359): T1 sequence (P12763 19-359)
Procedure: as §2, §3

[6] = molecular target: T6, ACS2P1-biotin binding to asialofetuin (Bos taurus, UniProt P12763); assay: Screening of S2 and S3 peptides for inhibition of ACS2P1-biotin binding to asialofetuin; details: peptide μM: ACS2P1 4.1, S2P2 42.5, SPYGRC 5520, S2P3 22.4, S2P4 6.0, S2P6 319, S3P1 1142, S3P2 934, S3P3 16.1, S3P4 6.4, S3P5 22.5; ACS2P1-biotin 0.1 μg; − inhibition, + enhancement
T6 construct: made in house
T6 sequence (P12763 19-359): T1 sequence (P12763 19-359)

[7] = molecular target: T7, ACS2P1-biotin binding to fetuin (Bos taurus, UniProt P12763); assay: biochemical; details: peptide μM: ACS2P1 4.1, S2P2 42.5, SPYGRC 5520, S2P3 22.4, S2P4 6.0, S2P6 319, S3P1 1142, S3P2 934, S3P3 16.1, S3P4 6.4, S3P5 22.5; ACS2P1-biotin 0.1 μg; − inhibition, + enhancement
T7 construct: purchased Sigma Chemical Company
T7 sequence (P12763 19-359): T1 sequence (P12763 19-359)

## PQEQITQHGSPYGRC [Peptide S2P1]
[1]
  Percent Changes in Binding Activity SNA/fetuin: −5 ± 1%
[2]
  Percent Changes in Binding Activity WGA/fetuin: −18 ± 2%
[3]
  Percent Changes in Binding Activity PT/asialo-fetuin: +113(1) Percent
[4]
  Percent Changes in Binding Activity MAL/fetuin: +8 ± 4%
[5]
  effect on PT-biotin binding to fetuin, in words: enhancement of binding of PT to fetuin
  Percent Changes in Binding Activity PT/fetuin: +85 ± 4%
[5]; initial peptide screening
  enhancement of PT-biotin binding to fetuin relative to control experiments in the absence of peptide: ~2 fold

## Ac-PQEQITQHGSPYGRC-NH2 [ACS2P1]
[3]
  Percent Changes in Binding Activity PT/asialo-fetuin: +190 ± 23%
[4]
  Percent Changes in Binding Activity MAL/fetuin: +16 ± 9%
[5]
  Percent Changes in Binding Activity PT/fetuin: +89 ± 3%
[6]
  Percent Change in Binding Activity Asialofetuin: +101 ± 2%

## CC[C@H](C)[C@H](NC(=O)[C@H](CS)NC(=O)[C@H](Cc1ccccc1)NC(=O)[C@@H](NC(=O)[C@@H](NC(=O)[C@H](CCCCN)NC(=O)[C@H](CC(C)C)NC(=O)[C@H](CC(=O)O)NC(=O)[C@H](Cc1ccccc1)NC(=O)[C@H](C)NC(=O)CN)[C@@H](C)O)[C@@H](C)O)C(=O)N[C@@H](CCSC)C(=O)N[C@H](C(=O)N[C@H](C(=O)N[C@@H](CCCNC(=N)N)C(=O)N[C@@H](CC(N)=O)C(=O)N[C@H](C(=O)NCC(=O)N[C@@H](CCC(N)=O)C(=O)N1CCC[C@H]1C(=O)N[C@@H](C)C(=O)O)[C@@H](C)O)[C@@H](C)O)[C@@H](C)O [Peptide S2P3]
[1]
  Percent Changes in Binding Activity SNA/fetuin: −15 ± 4%
[2]
  IC50: 140 ± 30 µM
  Percent Changes in Binding Activity WGA/fetuin: −56 ± 8%
[3]
  Percent Changes in Binding Activity PT/asialo-fetuin: −15(1) Percent
[4]
  IC50: 860 ± 20 µM
  effect on MAL-biotin binding to fetuin, in words: inhibit binding to fetuin of all the biotinylated lectins; also recorded: very active at inhibiting
  Percent Changes in Binding Activity MAL/fetuin: −18 ± 2%
[7]
  Percent Change in Binding Activity Fetuin: +70 ± 11%
[5]
  IC50: 190 ± 90 µM
  effect on PT-biotin binding to fetuin, in words: inhibit binding to fetuin of all the biotinylated lectins
  Percent Changes in Binding Activity PT/fetuin: −21 ± 0%
[6]
  Percent Change in Binding Activity Asialofetuin: +15 ± 11%

## PQEQITQHGSQYGYC [S2 (WGA)]
[1]
  Percent Changes in Binding Activity SNA/fetuin: 0 ± 1%
[2]
  Percent Changes in Binding Activity WGA/fetuin: −4 ± 3%
[4]
  Percent Changes in Binding Activity MAL/fetuin: +22 ± 3%
[5]
  Percent Changes in Binding Activity PT/fetuin: +79 ± 15%

## AGFIYRETFCITTIYKTGQPAADHYYSKVTA [Peptide S3P4]
[1]
  Percent Changes in Binding Activity SNA/fetuin: +1(1) Percent
[2]
  Percent Changes in Binding Activity WGA/fetuin: +13 ± 1%
[3]
  Percent Changes in Binding Activity PT/asialo-fetuin: +75 ± 50%
[4]
  Percent Changes in Binding Activity MAL/fetuin: +7 ± 1%
[7]
  Percent Change in Binding Activity Fetuin: +55 ± 26%
[5]
  Percent Changes in Binding Activity PT/fetuin: +12 ± 2%
[6]
  Percent Change in Binding Activity Asialofetuin: +26 ± 2%
